Values of other authors in US20100210586A1, “POMEGRANATE EXTRACTS, NUTRITIONAL PRODUCTS CONTAINING THEM AND THEIR USES” (PROBELTE PHARMA, S.A., priority 2007, published 2010).

Details: oral

O=c1oc2c(O)c(O)cc3c(=O)oc4c(O)c(O)cc1c4c23 [ellagic acid]
absorption when administered orally: poorly absorbed
